Patent US7371551B1, “Feedback-resistant homoserine transsuccinylases” (priority 2002, dated 2008)

Key:
[1] = target: T1, E. coli homoserine transsuccinylase (MetA, SEQ ID No. 2) variant pSLmetA*L, Tyr294 replaced with Leu (Escherichia coli, UniProt P07623, Y294L); assay: biochemical; conditions: pH 7.6, read-out: Activity (%) in the presence of 1 mM L-methionine
T1 construct: made in house; host or cells: E. coli W3110 (ATCC 27325), cell extract
Excerpt: (§1) Any method which enables the activity of the enzyme to be determined in the presence of L-methionine or SAM can be used for determining the sensitivity of the homoserine transsuccinylase to L-methionine and/or SAM. For example, the homoserine transsuccinylase activity can be determined by following the method described by Kredich and Tomkins for determining the activity of serine acetyltransferases (Kredich N. M. and Tomkins G. M., J. Biol. Chem. 241, 4955-4965 (1966)). The enzyme activity is measured in an assay sample which contains homoserine and succinyl-CoA. The reaction is started by adding enzyme and monitored in a spectrophotometer by way of the decrease in the extinction at 232 nm which results from cleavage of the thioester bond in the succinyl-coenzyme A. The described test is suitable for determining the sensitivity of the homoserine transsuccinylases to methionine. The inhibition of homoserine transsuccinylase activity is tested in the presence of different concentrations of L-methionine in the reaction mixture.
(§2) The activity, and the influence of L-methionine on the activity, of the different homoserine transsuccinylases were determined by means of an enzyme test using cell extracts in which the respective proteins had been produced. For this, the corresponding plasmids, encoding altered homoserine transsuccinylases, were introduced, by transformation, into the E. coli strain W3110 (ATCC 27325) using methods known to the skilled person. The transformation mixture was spread on LB-tetracycline agar plates (10 g of tryptone/l, 5 g of yeast extract/l, 5 g of NaCl/l, 15 g of agar/l and 15 mg of tetracycline/l) and incubated at 37° C. overnight. The resulting transformants were grown in SM1 medium (for 1 l of medium: CaCl2×2H2O, 0.0147 g, MgSO4×7H2O, 0.3 g, Na2MoO4×2H2O, 0.15 mg, H3BO3, 2.5 mg, CoCl2×6H2O, 0.7 mg, CuSO4×5H2O, 0.25 mg, MnCl2×4H2O, 1.6 mg, ZnSO4×7H2O, 0.3 mg, KH2PO4, 3.0 g, K2HPO4, 12.0 g, (NH4)2SO4, 5 g, NaCl, 0.6 g, FeSO4×7H2O, 0.002 g, Na3-citrate×2H2O, 1 g, glucose, 5 g, tryptone, 1 g, yeast extract, 0.5 g), centrifuged down at an absorption of approx. 0.8 at 600 nm, washed in 50 mM Tris pH 7.5, and centrifuged down once again. The cells were resuspended in 50 mM Tris/Cl, pH 7.5, 2 mM dithiothreitol, 0.5 mM phenylmethylsulfonyl fluoride and disrupted in a French press. The supernatant from a further centrifugation was used as the enzyme extract in the test. The enzyme activity was determined, in a mixture containing 50 mM Tris/Cl, pH 7.6, 1 mM homoserine and 0.1 mM succinyl-CoA, by photometrically quantifying, by means of the decrease in the extinction at 232 nm, the coenzyme A formed in the reaction, following the method described by Kredich and Tomkins for determining the activity of serine acetyltransferases (Kredich N. M. and Tomkins G. M., J. Biol. Chem. 241, 4955-4965 (1966)). The effect of added L-methionine on the activity was determined and the inhibitability was quantified as a Ki value. The Ki which is determined is the concentration of L-methionine at which the activity of the homoserine transsuccinylase is only 50% of its activity in the absence of L-methionine.

[2] = target: T2, E. coli homoserine transsuccinylase (MetA, SEQ ID No. 2) variant pSLmetA*P, Tyr294 replaced with Pro (Escherichia coli, UniProt P07623, Y294P); assay: biochemical; conditions: pH 7.6, read-out: Activity (%) in the presence of 1 mM L-methionine
T2 construct: made in house; host or cells: E. coli W3110 (ATCC 27325), cell extract
Excerpt: as §1, §2

[3] = target: T3, E. coli homoserine transsuccinylase (MetA, SEQ ID No. 2) variant pSLmetA*K, Tyr294 replaced with Lys (Escherichia coli, UniProt P07623, Y294K); assay: biochemical; conditions: pH 7.6, read-out: Activity (%) in the presence of 1 mM L-methionine
T3 construct: made in house; host or cells: E. coli W3110 (ATCC 27325), cell extract
Excerpt: as §1, §2

[4] = target: T4, E. coli homoserine transsuccinylase (MetA, SEQ ID No. 2) variant pSLmetA*A, Tyr294 replaced with Ala (Escherichia coli, UniProt P07623, Y294A); assay: biochemical; conditions: pH 7.6, read-out: Activity (%) in the presence of 1 mM L-methionine
T4 construct: made in house; host or cells: E. coli W3110 (ATCC 27325), cell extract
Excerpt: as §1, §2

[5] = target: T5, E. coli homoserine transsuccinylase (MetA, SEQ ID No. 2) variant pSLmetAN, Asp101 replaced with Asn (Escherichia coli, UniProt P07623, D101N); assay: biochemical; conditions: pH 7.6, read-out: Activity (%) in the presence of 1 mM L-methionine
T5 construct: made in house; host or cells: E. coli W3110 (ATCC 27325), cell extract
Excerpt: as §1, §2

[6] = target: T6, E. coli homoserine transsuccinylase (MetA, SEQ ID No. 2) variant pKP446, Tyr294 replaced with Cys (Escherichia coli, UniProt P07623, Y294C); assay: biochemical; conditions: pH 7.6, read-out: Activity (%) in the presence of 1 mM L-methionine
T6 construct: made in house; host or cells: E. coli W3110 (ATCC 27325), cell extract
Excerpt: as §1, §2

[7] = target: T7, E. coli homoserine transsuccinylase (MetA, SEQ ID No. 2) variant pSLmetA*0, amino acid 294 (Tyr) deleted (Escherichia coli, UniProt P07623, DEL294-294); assay: biochemical; conditions: pH 7.6, read-out: Activity (%) in the presence of 1 mM L-methionine
T7 construct: made in house; host or cells: E. coli W3110 (ATCC 27325), cell extract
Excerpt: as §1, §2

[8] = target: T8, E. coli homoserine transsuccinylase (MetA, SEQ ID No. 2) variant pSLmetA*Q, Tyr294 replaced with Gln (Escherichia coli, UniProt P07623, Y294Q); assay: biochemical; conditions: pH 7.6, read-out: Activity (%) in the presence of 1 mM L-methionine
T8 construct: made in house; host or cells: E. coli W3110 (ATCC 27325), cell extract
Excerpt: as §1, §2

[9] = target: T1, E. coli homoserine transsuccinylase (MetA, SEQ ID No. 2) variant pSLmetA*L, Tyr294 replaced with Leu; assay: Inhibition of homoserine transsuccinylase activity by SAM (cell extract, DTNB assay at 412 nm); assay type: biochemical; conditions: pH 7.5, read-out: Activity (%) in the presence of 1 mM SAM
Experimental: (§3) In order to determine the sensitivity of the activity of the different homoserine transsuccinylases to SAM, it is possible, for example, to carry out an activity test as described in Lee L. W. et al., J. Biol. Chem. 241, 5479-5480 (1966). In this method, the enzyme extract is incubated with homoserine and succinyl-CoA. After various times, a part of the test assay sample is stopped by adding it to a mixture of ethanol, water, and 5,5′-dithiobis(2-nitrobenzoic acid). The absorption is determined photometrically at 412 nm. The described test is suitable, for example, for determining the sensitivity of the homoserine transsuccinylases to SAM.
(§4) The influence of SAM on the activities of the different homoserine transsuccinylases was determined by quantifying the activity in the presence of different concentrations of SAM (Cl salt, Sigma). The cell extracts were grown and prepared as described in Example 3. The activity test was carried out as described in Lee L. W. et al., J. Biol. Chem. 241, 5479-5480 (1966), with the enzyme extract being incubated with 50 mM potassium phosphate buffer, pH 7.5, 3 mM homoserine and 0.3 mM succinyl-CoA. After various times, 100 μl volumes of test mixture were stopped by adding them in each case to a mixture of 400 μl of ethanol, 400 μl of water and 100 μl of 10 mM 5,5′-dithiobis(2-nitrobenzoic acid). After the resulting mixture had been incubated at room temperature for 5 minutes, the absorption was determined photometrically at 412 nm. After the protein concentration had been determined, the enzyme activity was calculated using the extinction coefficient. The Ki was determined as a measure of the ability of SAM to inhibit the activity.

[10] = target: T2, E. coli homoserine transsuccinylase (MetA, SEQ ID No. 2) variant pSLmetA*P, Tyr294 replaced with Pro; assay: as above; assay type: biochemical; conditions: pH 7.5, read-out: Activity (%) in the presence of 1 mM SAM
Experimental: as §3, §4

[11] = target: T3, E. coli homoserine transsuccinylase (MetA, SEQ ID No. 2) variant pSLmetA*K, Tyr294 replaced with Lys; assay: as above; assay type: biochemical; conditions: pH 7.5, read-out: Activity (%) in the presence of 1 mM SAM
Experimental: as §3, §4

[12] = target: T4, E. coli homoserine transsuccinylase (MetA, SEQ ID No. 2) variant pSLmetA*A, Tyr294 replaced with Ala; assay: as above; assay type: biochemical; conditions: pH 7.5, read-out: Activity (%) in the presence of 1 mM SAM
Experimental: as §3, §4

[13] = target: T5, E. coli homoserine transsuccinylase (MetA, SEQ ID No. 2) variant pSLmetAN, Asp101 replaced with Asn; assay: as above; assay type: biochemical; conditions: pH 7.5, read-out: Activity (%) in the presence of 1 mM SAM
Experimental: as §3, §4

[14] = target: T6, E. coli homoserine transsuccinylase (MetA, SEQ ID No. 2) variant pKP446, Tyr294 replaced with Cys; assay: as above; assay type: biochemical; conditions: pH 7.5, read-out: Activity (%) in the presence of 1 mM SAM
Experimental: as §3, §4

[15] = target: T7, E. coli homoserine transsuccinylase (MetA, SEQ ID No. 2) variant pSLmetA*0, amino acid 294 (Tyr) deleted; assay: as above; assay type: biochemical; conditions: pH 7.5, read-out: Activity (%) in the presence of 1 mM SAM
Experimental: as §3, §4

[16] = target: T8, E. coli homoserine transsuccinylase (MetA, SEQ ID No. 2) variant pSLmetA*Q, Tyr294 replaced with Gln; assay: as above; assay type: biochemical; conditions: pH 7.5, read-out: Activity (%) in the presence of 1 mM SAM
Experimental: as §3, §4

[17] = tested on: homoserine transsuccinylase; assay: Homoserine transsuccinylase enzyme test using cell extracts, decrease in extinction at 232 nm, with and without L-methionine; assay type: biochemical, E. coli
Excerpt: as §1, §2

[18] = tested on: homoserine transsuccinylase; assay: Homoserine transsuccinylase activity test (Lee et al.), 5,5'-dithiobis(2-nitrobenzoic acid), absorption at 412 nm, with and without SAM; assay type: biochemical, E. coli
Experimental: as §3, §4

T6 sequence (P07623 2-309 Y294C): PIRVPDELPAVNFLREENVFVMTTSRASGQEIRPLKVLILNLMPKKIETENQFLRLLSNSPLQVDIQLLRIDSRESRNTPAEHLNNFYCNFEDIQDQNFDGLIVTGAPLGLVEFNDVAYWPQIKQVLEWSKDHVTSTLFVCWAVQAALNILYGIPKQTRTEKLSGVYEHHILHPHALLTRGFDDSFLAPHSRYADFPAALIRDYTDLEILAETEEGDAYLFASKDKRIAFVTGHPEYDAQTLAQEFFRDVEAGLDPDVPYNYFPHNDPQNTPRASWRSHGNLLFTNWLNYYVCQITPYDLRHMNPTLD
T7 sequence (P07623 other isoform, or with tags, fused parts or gaps DEL294-294): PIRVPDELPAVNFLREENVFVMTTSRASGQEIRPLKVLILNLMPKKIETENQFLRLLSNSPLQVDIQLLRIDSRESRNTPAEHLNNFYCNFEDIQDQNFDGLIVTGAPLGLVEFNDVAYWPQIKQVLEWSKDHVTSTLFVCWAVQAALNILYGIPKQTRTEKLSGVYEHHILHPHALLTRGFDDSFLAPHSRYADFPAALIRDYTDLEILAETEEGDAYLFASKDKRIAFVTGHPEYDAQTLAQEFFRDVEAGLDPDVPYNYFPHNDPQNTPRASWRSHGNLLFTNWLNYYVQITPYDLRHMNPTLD
T2 sequence (P07623 2-309 Y294P): as the sequence (P07623 2-309 Y294C) above, with C293P counted along it
T1 sequence (P07623 2-309 Y294L): as the sequence (P07623 2-309 Y294C) above, with C293L counted along it
T4 sequence (P07623 2-309 Y294A): as the sequence (P07623 2-309 Y294C) above, with C293A counted along it
T5 sequence (P07623 2-309 D101N): as the sequence (P07623 2-309 Y294C) above, with D100N, C293Y counted along it
T8 sequence (P07623 2-309 Y294Q): as the sequence (P07623 2-309 Y294C) above, with C293Q counted along it
T3 sequence (P07623 2-309 Y294K): as the sequence (P07623 2-309 Y294C) above, with C293K counted along it

Molecule: CSCC[C@H](N)C(=O)O [L-methionine]
- activity at 1000 µM [1]: 89%
- activity at 1000 µM [2]: 91%
- activity at 1000 µM [3]: 92%
- activity at 1000 µM [4]: 94%
- activity at 1000 µM [5]: 86%
- activity at 1000 µM [6]: 96%
- activity at 1000 µM [7]: 98%
- activity at 1000 µM [8]: 95%

Molecule: C[S+](CC[C@H](N)C(=O)[O-])C[C@H]1O[C@@H](n2cnc3c(N)ncnc32)[C@H](O)[C@@H]1O (stereo partly shown) [SAM, S-Adenosylmethionine]
- activity at 1000 µM [9]: 80%
- activity at 1000 µM [10]: 98%
- activity at 1000 µM [11]: 90%
- activity at 1000 µM [12]: 95%
- activity at 1000 µM [13]: 91%
- activity at 1000 µM [14]: 92%
- activity at 1000 µM [15]: 96%
- activity at 1000 µM [16]: 87%

B1: pSLmetAI: MetA variant with Ile instead of Asp at position 101 (protein, UniProt P07623 2-309, looked up, variant D101I)
Homoserine …: PIRVPDELPAVNFLREENVFVMTTSRASGQEIRPLKVLILNLMPKKIETENQFLRLLSNSPLQVDIQLLRIDSRESRNTPAEHLNNFYCNFEDIQDQNFIGLIVTGAPLGLVEFNDVAYWPQIKQVLEWSKDHVTSTLFVCWAVQAALNILYGIPKQTRTEKLSGVYEHHILHPHALLTRGFDDSFLAPHSRYADFPAALIRDYTDLEILAETEEGDAYLFASKDKRIAFVTGHPEYDAQTLAQEFFRDVEAGLDPDVPYNYFPHNDPQNTPRASWRSHGNLLFTNWLNYYVYQITPYDLRHMNPTLD
- Activity (%) in the presence of 1 mM L-methionine ([17]; 1 mM L-methionine, activity in the absence of L-methionine corresponds to 100%): 95%
- Activity (U/mg) ([17]; cell extract of E. coli W3110 transformants, 1 mM homoserine, 0.1 mM succinyl-CoA, 50 mM Tris/Cl pH 7.6): 0.107 U/mg
- Ki ([17]; concentration of L-methionine at which activity is only 50% of activity in its absence): 9.5 mM
- Activity (%) in the presence of 1 mM SAM ([18]; 1 mM SAM, activity in the absence of SAM corresponds to 100%): 93%
- Ki ([18]; SAM (Cl salt, Sigma) as inhibitor): 12 mM
- Activity (U/mg) ([18]; cell extract, 3 mM homoserine, 0.3 mM succinyl-CoA, 50 mM potassium phosphate buffer pH 7.5): 0.68 U/mg
